Experiments:
Set-up in all cases: dose 5 mg/kg, route intravenous
Conditions in all cases: in vivo
[1] = system: Liver; experiment: Biodistribution in albino Wistar Hannover rat liver at 5 mg/kg, iv after 24 hrs by autoradiography analysis; type: ADME, organism-based
[2] = system: Pancreas; experiment: Biodistribution in albino Wistar Hannover rat pancreas at 5 mg/kg, iv after 24 hrs by autoradiography analysis; type: ADME, organism-based
[3] = system: Rattus norvegicus; experiment: Biodistribution in albino Wistar Hannover rat renal cortex at 5 mg/kg, iv after 24 hrs by autoradiography analysis; type: ADME, organism-based
[4] = system: Rattus norvegicus; experiment: Biodistribution in albino Wistar Hannover rat epididymis at 5 mg/kg, iv after 24 hrs by autoradiography analysis; type: ADME, organism-based
[5] = system: Rattus norvegicus; experiment: Biodistribution in albino Wistar Hannover rat adrenal cortex at 5 mg/kg, iv after 24 hrs by autoradiography analysis; type: ADME, organism-based
[6] = system: Spleen; experiment: Biodistribution in albino Wistar Hannover rat spleen at 5 mg/kg, iv after 24 hrs by autoradiography analysis; type: ADME, organism-based
[7] = system: Thymus; experiment: Biodistribution in albino Wistar Hannover rat thymus at 5 mg/kg, iv after 24 hrs by autoradiography analysis; type: ADME, organism-based
[8] = system: Rattus norvegicus; experiment: Biodistribution in albino Wistar Hannover rat bone marrow at 5 mg/kg, iv after 24 hrs by autoradiography analysis; type: ADME, organism-based
[9] = system: Plasma; experiment: Biodistribution in albino Wistar Hannover rat plasma at 5 mg/kg, iv after 24 hrs by liquid scintillation counting; type: ADME, organism-based
[10] = system: Liver; experiment: Half life in albino Wistar Hannover rat liver at 5 mg/kg, iv by autoradiography analysis; type: ADME, organism-based
[11] = system: Brain; experiment: Half life in albino Wistar Hannover rat brain at 5 mg/kg, iv by autoradiography analysis; type: ADME, organism-based
[12] = Retention time in albino Wistar Hannover rat at 5 mg/kg, iv; type: ADME, organism-based
[13] = system: Spleen; experiment: Drug uptake in albino Wistar Hannover rat spleen at 5 mg/kg, iv by LESA-MS analysis; type: ADME, organism-based
[14] = system: Rattus norvegicus; experiment: Biodistribution in albino Wistar Hannover rat bone marrow at 5 mg/kg, iv after 4 hrs by autoradiography analysis; type: ADME, organism-based
[15] = system: Harderian gland; experiment: Biodistribution in albino Wistar Hannover rat harderian gland at 5 mg/kg, iv after 4 hrs by autoradiography analysis; type: ADME, organism-based
[16] = system: Rattus norvegicus; experiment: Biodistribution in albino Wistar Hannover rat muscle caudal at 5 mg/kg, iv after 24 hrs by autoradiography analysis; type: ADME, organism-based, Muscle tissue
[17] = system: Rattus norvegicus; experiment: Biodistribution in albino Wistar Hannover rat salivary gland at 5 mg/kg, iv after 24 hrs by autoradiography analysis; type: ADME, organism-based
[18] = system: Blood; experiment: Half life in albino Wistar Hannover rat whole blood at 5 mg/kg, iv by liquid scintillation counting; type: ADME, organism-based
[19] = system: Plasma; experiment: Half life in albino Wistar Hannover rat plasma at 5 mg/kg, iv by liquid scintillation counting; type: ADME, organism-based
[20] = Drug uptake in albino Wistar Hannover rat harder's gland at 5 mg/kg, iv by LESA-MS analysis; type: ADME, organism-based, Harderian gland
[21] = system: Muscle tissue; experiment: Drug uptake in albino Wistar Hannover rat muscle at 5 mg/kg, iv by LESA-MS analysis; type: ADME, organism-based
[22] = system: Pituitary gland; experiment: Drug uptake in albino Wistar Hannover rat pituitary at 5 mg/kg, iv by LESA-MS analysis; type: ADME, organism-based
[23] = Drug uptake in albino Wistar Hannover rat salivary gland at 5 mg/kg, iv by LESA-MS analysis; type: ADME, organism-based
[24] = system: Pancreas; experiment: Drug uptake in albino Wistar Hannover rat pancreas at 5 mg/kg, iv by LESA-MS analysis; type: ADME, organism-based
[25] = system: Thymus; experiment: Drug uptake in albino Wistar Hannover rat thymus at 5 mg/kg, iv by LESA-MS analysis; type: ADME, organism-based
[26] = system: Rattus norvegicus; experiment: Biodistribution in albino Wistar Hannover rat muscle cranial at 5 mg/kg, iv after 5 mins by autoradiography analysis; type: ADME, organism-based, Muscle tissue
[27] = system: Rattus norvegicus; experiment: Biodistribution in albino Wistar Hannover rat tongue at 5 mg/kg, iv after 5 mins by autoradiography analysis; type: ADME, organism-based
[28] = system: Liver; experiment: Biodistribution in albino Wistar Hannover rat liver at 5 mg/kg, iv after 5 mins by autoradiography analysis; type: ADME, organism-based
[29] = system: Rattus norvegicus; experiment: Biodistribution in albino Wistar Hannover rat renal cortex at 5 mg/kg, iv after 5 mins by autoradiography analysis; type: ADME, organism-based
[30] = system: Rattus norvegicus; experiment: Biodistribution in albino Wistar Hannover rat testis at 5 mg/kg, iv after 5 mins by autoradiography analysis; type: ADME, organism-based
[31] = system: Rattus norvegicus; experiment: Biodistribution in albino Wistar Hannover rat epididymis at 5 mg/kg, iv after 5 mins by autoradiography analysis; type: ADME, organism-based
[32] = system: Pituitary gland; experiment: Biodistribution in albino Wistar Hannover rat pituitary at 5 mg/kg, iv after 5 mins by autoradiography analysis; type: ADME, organism-based
[33] = system: Spleen; experiment: Biodistribution in albino Wistar Hannover rat spleen at 5 mg/kg, iv after 5 mins by autoradiography analysis; type: ADME, organism-based
[34] = system: Thymus; experiment: Biodistribution in albino Wistar Hannover rat thymus at 5 mg/kg, iv after 5 mins by autoradiography analysis; type: ADME, organism-based
[35] = system: Brain; experiment: Biodistribution in albino Wistar Hannover rat brain at 5 mg/kg, iv after 5 mins by autoradiography analysis; type: ADME, organism-based
[36] = system: Zone of skin; experiment: Biodistribution in albino Wistar Hannover rat skin at 5 mg/kg, iv after 5 mins by autoradiography analysis; type: ADME, organism-based
[37] = system: Rattus norvegicus; experiment: Biodistribution in albino Wistar Hannover rat muscle cranial at 5 mg/kg, iv after 4 hrs by autoradiography analysis; type: ADME, organism-based, Muscle tissue
[38] = system: Rattus norvegicus; experiment: Biodistribution in albino Wistar Hannover rat muscle caudal at 5 mg/kg, iv after 4 hrs by autoradiography analysis; type: ADME, organism-based, Muscle tissue
[39] = system: Pancreas; experiment: Biodistribution in albino Wistar Hannover rat pancreas at 5 mg/kg, iv after 4 hrs by autoradiography analysis; type: ADME, organism-based
[40] = system: Rattus norvegicus; experiment: Biodistribution in albino Wistar Hannover rat adipose tissue at 5 mg/kg, iv after 4 hrs by autoradiography analysis; type: ADME, organism-based
[41] = system: Lung; experiment: Biodistribution in albino Wistar Hannover rat lung at 5 mg/kg, iv after 4 hrs by autoradiography analysis; type: ADME, organism-based
[42] = system: Rattus norvegicus; experiment: Biodistribution in albino Wistar Hannover rat myocardium at 5 mg/kg, iv after 4 hrs by autoradiography analysis; type: ADME, organism-based
[43] = system: Spleen; experiment: Biodistribution in albino Wistar Hannover rat spleen at 5 mg/kg, iv after 4 hrs by autoradiography analysis; type: ADME, organism-based

`CN(CCc1cc(C(F)(F)F)cc(C(F)(F)F)c1)C(=O)[C@H](c1ccccc1)N1CCN(CC2CC2)CC1.Cl.O` showed a Drug uptake [1] of 4793 ngequiv/g, a Drug uptake [2] of 4138 ngequiv/g and a Drug uptake [3] of 2627 ngequiv/g. The Drug uptake [4] was 1043 ngequiv/g, the Drug uptake [5] was 3447 ngequiv/g and the Drug uptake [6] was 3306 ngequiv/g. For the same molecule, the Drug uptake [7] was 1746 ngequiv/g, the Drug uptake [8] was 1156 ngequiv/g and the Drug uptake [9] was 80 ngequiv/g. The t1/2 [10] was 31.2 h, the t1/2 [11] was 32.7 h and the Retention time [12] was 0.358 h. The Drug uptake [13] was 30.9%, the Drug uptake [14] was 3910 ngequiv/g and the Drug uptake [15] was 13941 ngequiv/g. For the same molecule, the Drug uptake [16] was 670 ngequiv/g, the Drug uptake [17] was 1877 ngequiv/g and the t1/2 [18] was 38.6 h. The t1/2 [19] was 21.9 h, the Drug uptake [20] was 79.9% and the Drug uptake [21] was 36.5%. For the same molecule, the Drug uptake [22] was 47.8%, the Drug uptake [23] was 42.5% and the Drug uptake [24] was 23.7%. It also gave a Drug uptake [25] of 67.2%, a Drug uptake [26] of 8437 ngequiv/g and a Drug uptake [27] of 12885 ngequiv/g. It also gave a Drug uptake [28] of 5984 ngequiv/g, a Drug uptake [29] of 19088 ngequiv/g and a Drug uptake [30] of 938 ngequiv/g. For the same molecule, the Drug uptake [31] was 1728 ngequiv/g, the Drug uptake [32] was 8110 ngequiv/g and the Drug uptake [33] was 7308 ngequiv/g. The Drug uptake [34] was 3243 ngequiv/g, the Drug uptake [35] was 1912 ngequiv/g and the Drug uptake [36] was 1743 ngequiv/g. The Drug uptake [37] was 2972 ngequiv/g, the Drug uptake [38] was 2606 ngequiv/g and the Drug uptake [39] was 12820 ngequiv/g. For the same molecule, the Drug uptake [40] was 537 ngequiv/g, the Drug uptake [41] was 10036 ngequiv/g and the Drug uptake [42] was 4240 ngequiv/g. For the same molecule, the Drug uptake [43] was 10694 ngequiv/g.
